Data reported in US6667025B2 (Mitsubishi Pharma Corporation, priority 1997, dated 2003).

What was measured:
circulating lymphocytes [1] = assay: Circulating lymphocytes in peripheral blood of dogs; format: in vivo, dog; conditions: oral
Description: (§1) In dogs and monkeys, as well as rats, oral administration with FTY720 also decreases the number of circulating lymphocytes in peripheral blood. The reduction of the number of T cells was especially remarkable. Withdrawal of FTY720 treatment recovered the number of lymphocytes in peripheral blood to the normal level within 2 weeks.

[2] = tested on: skin allograft, WKAH donor and F344 recipients; format: in vivo
Description: Two MHC-incompatible rat strains were selected, WKAH donor (RT1^k) and F344 recipients (RT1^IV1). Full-thickness skin grafts (2.0×2.0 cm square) were transplanted to the lateral thorax of recipients and wrapped with sterile, bactericidal gauze. The chest was then wrapped with an elastic bandage. Five days after transplantation, the wraps were removed and the grafts inspected daily for rejection. Rejection was defined as more than 90% necrosis of graft epithelium.

T cell region of spleen = T cell region of spleen in vivo
[3] = tested on: popliteal lymph node of (LEW×BN) F1 rats injected with LEW spleen cells; assay: Local GvHR, enlargement of popliteal lymph node; format: in vivo, rat
rat HEV cell lines = assay: Adhesion of rat lymphocytes to HEV cells in vitro; format: cell-based
Description: After the labeling with calcein-AM, the lymphocytes were washed three times with ice-cold RPMI 1640 medium. […] After incubation, the plates were turned upside down and kept for 30 min to remove HEV-nonadherent cells. Calcein pre-labeled lymphocytes adhered to HEV monolayer were lysed by adding distilled water containing 1% nonidet P-40 and the developed fluorescence was measured at 485/530 nm with fluorescence microplate reader (CytoFluor 2350).

[4] = tested on: male F344 rat lymphocytes in lymphoid tissues; assay: Homing of transfused male lymphocytes in female rats (SRY PCR); format: in vivo; conditions: 0.1 or 1 mg/kg oral 2.5 h before transfusion; 30 min after transfusion
Description: The decrease in circulating lymphocytes by FTY720 is due to the acceleration of lymphocyte homing to mesenteric and peripheral lymph nodes and Peyer's patches (FIGS. 13A-13D). For this experiment, after 2.5 h of administering FTY720 at 0.1 mg/kg or 1 mg/kg orally to female F344 rats, lymphocytes from male F344 rat were transfused intravenously into the rats. Thirty minutes after the transfusion, the peripheral blood, spleen, mesenteric lymph nodes, axillary lymph nodes, Peyer's patches, liver, and lung were removed. PCR amplification of SRY-1 gene, which is Y-chromosome specific, detected male lymphocytes in the tissue samples. The PCR primer sequences for SRY amplification were taken from a previous report (47). […]
An aliquot (10 μl) of the PCR products was electrophoresed on 2.5% agarose gel and the amplified DNA-fragments stained with SYBR Green I (Molecular Probes). The fluorescence intensity of the specific bands was visualized and measured by a fluorescence image analyzer (Fluor Imager 575, Molecular Dynamics). The number of male cells in 10^6 female cells, calculated with a standard curve made from a control amplification of SRY from a standard DNA extracted from 10^6 […], is indicated for each tissue noted in FIGS. 13A-13D.

[5] = tested on: calcein-prelabeled lymphocytes in lymphoid tissues; assay: Lymphocyte homing of calcein-prelabeled lymphocytes; format: in vivo, rat; conditions: oral 1 mg/kg
Description: The lymphocytes prepared from mesenteric lymph nodes and axillary lymph nodes in 5 to 6-week old F344 rats were pre-labeled with calcein-AM (Molecular Probes) at 1 μmol/L on ice for 30 min. After the labeling with calcein-AM, the lymphocytes were washed three times with ice-cold saline. Thereafter, the calcein-prelabeled lymphocytes at 5×10^7 cells were transfused through the tail vein to sex and age-matched F344 rats. FTY720 at 0.1 or 1 mg/kg was orally administered 2.5 hours before the transfusion. After 30 min. of the transfusion, mesenteric lymph nodes, axillary lymph nodes, Peyer's patches, and spleen were removed and the numbers of calcein prelabeled lymphocytes in these tissues were measured using flow cytometer (EPICS-XL). To examine the influence of antibodies against lymphocyte homing receptors, the calcein-prelabeled lymphocytes were treated with 60 μg/ml of either mouse anti-rat CD49d Mab (clone TA-2) (49), hamster anti-rat CD62L Mab (clone HRL3) (50), mouse anti-rat CD11a Mab (clone WT.1) (51), or control Ig at 4° C. for 30 min. Anti-rat lymphocyte-homing receptor Mabs and control Ig were purchased from Seikagaku-kougyou Ltd. or Pharmingen, respectively.

IL-2 production = conditions: same concentration range (up to 1000 nM); cited from earlier work
circulating lymphocytes [6] = assay: Circulating lymphocytes in peripheral blood of monkeys; format: in vivo, monkey; conditions: oral
Description: as §1

[7] = tested on: skin allograft, LEW donor and F344 recipient; assay: Rat skin allograft survival, MHC-compatible strains; format: in vivo; conditions: data not shown

SMILES: CCCCCCCCc1ccc(CCC(N)(CO)CO)cc1.Cl [FTY720, 2-amino-2[2-(4-octylphenyl)ethyl]propane-1,3-diol hydrochloride]
- number of circulating lymphocytes in peripheral blood (circulating lymphocytes [1]): decreases
- median survival time (MST) of skin graft ([2]; 10 mg/kg for 14 days): 27.0 days
- oral dose that significantly prolonged skin graft survival ([2]; oral, WKAH to F344 rats): ≥ 0.1 mg/kg
- renal toxicity or other toxic signs ([2]; rat, in vivo, po, 10 mg/kg): without renal toxicity or other toxic signs
- effect on T cell region of spleen (T cell region of spleen): atrophy
- immunosuppressive potency relative to CsA ([3]; local GvHR in rats): 30 fold
- oral dose that significantly inhibited enlargement of popliteal lymph node ([3]; oral, local GvHR): ≥ 0.1 mg/kg
- Fluorescence intensity at 485/530, mean ± SE (n = 6) (rat HEV cell lines; Experiment 1, HEV cells pretreated 3 hours with 1 nmol/L): 1215.7 ± 191.2
- Fluorescence intensity at 485/530, mean ± SE (n = 6) (rat HEV cell lines; Experiment 1, HEV cells pretreated 3 hours with 10 nmol/L): 2926.0 ± 196.4
- Fluorescence intensity at 485/530, mean ± SE (n = 6) (rat HEV cell lines; Experiment 1, HEV cells pretreated 3 hours with 100 nmol/L): 2510.2 ± 118.8
- Fluorescence intensity at 485/530, mean ± SE (n = 6) (rat HEV cell lines; Experiment 2, lymphocytes pretreated 3 hours with 100 nmol/L): 1945.7 ± 5.2
- Fluorescence intensity at 485/530, mean ± SE (n = 6) (rat HEV cell lines; FTY720 1 nmol/L present): 2059.2 ± 112.6
- Fluorescence intensity at 485/530, mean ± SE (n = 6) (rat HEV cell lines; FTY720 10 nmol/L present): 2107.2 ± 106.5
- Fluorescence intensity at 485/530, mean ± SE (n = 6) (rat HEV cell lines; FTY720 100 nmol/L present): 2252.0 ± 70.8
- Fluorescence intensity at 485/530, mean ± SE (n = 6) (rat HEV cell lines; FTY720 1000 nmol/L present): 2383.2 ± 115.2
- concentration that enhanced adhesion of calcein-prelabeled lymphocytes to HEV (rat HEV cell lines; in vitro, 120 min): ≥ 1 nmol/L
- pre-labeled lymphocytes in peripheral lymph nodes, Peyer's patch, mesenteric lymph nodes [4]: accelerated lymphocyte homing
- pre-labeled lymphocytes in spleen [4]: reduction
- homing of calcein-prelabeled lymphocytes to mesenteric lymph nodes and Peyer's patches [5]: induced lymphocyte homing
- production of IL-2 (IL-2 production): did not inhibit
- number of circulating lymphocytes in peripheral blood (circulating lymphocytes [6]): decreases
- dose that significantly prolonged skin allograft survival [7]: ≥ 0.03 mg/kg
